Results: patent publication US10555936B2, “Chemotherapeutic compositions and methods for treating human gliomas” (The Methodist Hospital, priority 2011, dated 2020)

Experiments:
[1] = test system: MAO-B; conditions: previously-published work; cited from earlier work
[2] = test system: BT-115; experiment: Cell death, Hoechst viability stain; type: cell-based, human; conditions: BT-115, high concentrations, 2 μM selegiline, 24 hrs
[3] = test system: BT-115; experiment: Total cell protein mass, BCA/SDS method; type: cell-based, human; conditions: BT-115, with 2 μM selegiline, 24 hr
[4] = test system: BT-111; experiment: Cell death, Hoechst viability stain; type: cell-based, human; conditions: BT-111, high concentrations, 2 μM selegiline, 24 hrs
[5] = test system: BT-111; experiment: Total cell protein mass, BCA/SDS method; type: cell-based, human; conditions: BT-111, with 2 μM selegiline, 24 hr
[6] = target: T1, hMAO-A (Homo sapiens, UniProt P21397); conditions: Fierro and co-workers; cited from earlier work
T1 sequence (P21397 1-527): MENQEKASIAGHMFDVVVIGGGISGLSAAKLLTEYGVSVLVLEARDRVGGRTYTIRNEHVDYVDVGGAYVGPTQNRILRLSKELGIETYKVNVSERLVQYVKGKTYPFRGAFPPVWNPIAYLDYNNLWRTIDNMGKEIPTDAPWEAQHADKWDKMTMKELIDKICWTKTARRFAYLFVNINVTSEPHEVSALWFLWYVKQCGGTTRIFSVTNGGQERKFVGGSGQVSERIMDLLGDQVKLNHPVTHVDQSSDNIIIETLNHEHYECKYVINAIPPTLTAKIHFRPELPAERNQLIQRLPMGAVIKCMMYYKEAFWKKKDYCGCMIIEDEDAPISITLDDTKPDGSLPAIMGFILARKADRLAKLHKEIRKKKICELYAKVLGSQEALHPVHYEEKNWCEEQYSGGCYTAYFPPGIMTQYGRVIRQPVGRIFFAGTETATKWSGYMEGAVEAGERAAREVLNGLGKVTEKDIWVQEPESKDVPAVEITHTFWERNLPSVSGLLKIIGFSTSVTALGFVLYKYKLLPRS

[7] = test system: BT-111 cells; type: cell-based, human

## 1-methyl-4-(3-methylfuran-yl)-1,2,3,6-tetrahydropyridine
[1]
  MAO-B substrate quality: excellent MAO-B substrates

## CN1CC=C(C2CCCCC2)CC1 [4-cyclohexyl-1-methyl-1,2,3,6-tetrahydropyridine]
[1]
  MAO-B substrate quality: excellent MAO-B substrates

## CCc1c2c(nc3ccc(OCCCN)cc13)-c1cc3c(c(=O)n1C2)COC(=O)[C@]3(O)CC [APE-SN38, 7-ethyl-10-(3-aminprop)-oxy-camptothecine]
[2]
  cell death on co-incubation with selegiline: could be arrested
[3]
  protection by selegiline: almost complete protection
[4]
  cell death on co-incubation with selegiline: could be arrested
[5]
  protection by selegiline: almost complete protection

## CSc1ccc(CC(C)N)cc1 (centres unmarked) [MTA]
[6]
  times better at inhibiting hMAO-A than hMAO-B: > 1000 times

## C#CCN(C)[C@H](C)Cc1ccccc1 [Selegiline]
[7]
  effect on mitochondrial membrane potential: no effect
